Reference: ChEMBL document CHEMBL1201862, “PubChem BioAssay data set” (2004)
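Protocol summary: plate cells (96-well), add compound at 5 concentrations, incubate 48 h, interpolate endpoints linearly. GI50 = concentration required for 50% inhibition of growth.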 Calls of active or inactive are those of the source. Rule as the data show it: active = GI50 up to about 1.1 µM and inactive = higher.

How the values were obtained:
Assay in all cases: NCI anticancer screen, dose series, 48 h
NCI-H23 = test system: NCI-H23
A498 = test system: A498
U-251 = test system: U-251
OVCAR-4 = test system: OVCAR-4
SK-MEL-28 = test system: SK-MEL-28
HCC 2998 = test system: HCC 2998
OVCAR-3 = test system: OVCAR-3
NCI-H522 = test system: NCI-H522
NCI-H226 = test system: NCI-H226
HCT-116 = test system: HCT-116
UACC-62 = test system: UACC-62
SNB-19 = test system: SNB-19
RPMI-8226 = test system: RPMI-8226
NCI/ADR-RES = test system: NCI/ADR-RES
CCRF-CEM = test system: CCRF-CEM
K562 = test system: K562
MDA-MB-435 = test system: MDA-MB-435
SK-MEL-5 = test system: SK-MEL-5
Malme-3M = test system: Malme-3M

SMILES | GI50 (NCI-H23) | GI50 (A498) | GI50 (U-251) | GI50 (OVCAR-4) | GI50 (SK-MEL-28) | GI50 (HCC 2998) | GI50 (OVCAR-3) | GI50 (NCI-H522) | GI50 (NCI-H226) | GI50 (HCT-116) | GI50 (UACC-62) | GI50 (SNB-19) | GI50 (RPMI-8226) | GI50 (NCI/ADR-RES) | GI50 (CCRF-CEM) | GI50 (K562) | GI50 (MDA-MB-435) | GI50 (SK-MEL-5) | GI50 (Malme-3M)
CSc1[nH]nc(N)c1C(=O)Nc1ccc(Cl)cc1 | 36.6 µM (inactive) | 73.3 µM (inactive) | 92.3 µM (inactive) | 50.5 µM (inactive) | > 100 µM (inactive) | 99.8 µM (inactive) | > 100 µM (inactive) | 27 µM (inactive) | 25.6 µM (inactive) | 23.6 µM (inactive) | 90.6 µM (inactive) | 66.5 µM (inactive) | 37.7 µM (inactive) | 35.2 µM (inactive) | 27 µM (inactive) | 51.3 µM (inactive) | > 100 µM (inactive) | > 100 µM (inactive) | 63.7 µM (inactive)
CCOc1nnnc2[nH]cnc12 | > 100 µM (inactive) | > 100 µM (inactive) | > 100 µM (inactive) | > 100 µM (inactive) | > 100 µM (inactive) | > 100 µM (inactive) | > 100 µM (inactive) | > 100 µM (inactive) | > 100 µM (inactive) | > 100 µM (inactive) | > 100 µM (inactive) | – | > 100 µM (inactive) | > 100 µM (inactive) | – | – | > 100 µM (inactive) | > 100 µM (inactive) | > 100 µM (inactive)
COc1ccc(/C=C/c2ccnc3ccccc23)cc1OC | 14.9 µM (inactive) | 11.5 µM (inactive) | 46.9 µM (inactive) | 12.3 µM (inactive) | 17.5 µM (inactive) | 39 µM (inactive) | 12.5 µM (inactive) | 5.65 µM (inactive) | 22.9 µM (inactive) | 12.6 µM (inactive) | 14.9 µM (inactive) | 17.4 µM (inactive) | 28.1 µM (inactive) | 14 µM (inactive) | 13.2 µM (inactive) | 9.79 µM (inactive) | 15.1 µM (inactive) | 14.8 µM (inactive) | 16.9 µM (inactive)
CC(=O)Nn1cnc(C(=N)C#N)c1N | > 100 µM (inactive) | > 100 µM (inactive) | > 100 µM (inactive) | > 100 µM (inactive) | > 100 µM (inactive) | > 100 µM (inactive) | > 100 µM (inactive) | > 100 µM (inactive) | > 100 µM (inactive) | > 100 µM (inactive) | > 100 µM (inactive) | > 100 µM (inactive) | > 100 µM (inactive) | > 100 µM (inactive) | > 100 µM (inactive) | > 100 µM (inactive) | > 100 µM (inactive) | > 100 µM (inactive) | > 100 µM (inactive)
Cc1sc2ncnc(NCCc3ccccc3)c2c1C | 10.9 µM (inactive) | 11.1 µM (inactive) | 11.6 µM (inactive) | 13.6 µM (inactive) | 17.8 µM (inactive) | 15.1 µM (inactive) | 14.2 µM (inactive) | 8.59 µM (inactive) | 11.6 µM (inactive) | 6.04 µM (inactive) | 11.9 µM (inactive) | 23.7 µM (inactive) | 10.2 µM (inactive) | 6.22 µM (inactive) | 13 µM (inactive) | 2 µM (inactive) | 13.7 µM (inactive) | 1.33 µM (inactive) | 17.5 µM (inactive)
COc1cccc2c1CCc1cc3c(N)nc(N)nc3nc1-2 | 5.06 µM (inactive) | 9.27 µM (inactive) | 2.67 µM (inactive) | 6.22 µM (inactive) | 2.78 µM (inactive) | 2.29 µM (inactive) | 7.26 µM (inactive) | 5.18 µM (inactive) | 12.6 µM (inactive) | 2.55 µM (inactive) | 7.23 µM (inactive) | 5.45 µM (inactive) | 2.12 µM (inactive) | 16.7 µM (inactive) | 2.55 µM (inactive) | 2.23 µM (inactive) | 5.3 µM (inactive) | 3.09 µM (inactive) | 5.14 µM (inactive)
Oc1c(Cl)ccc2cccnc12 | 5.06 µM (inactive) | 4.81 µM (inactive) | 3.69 µM (inactive) | 3.21 µM (inactive) | 22.8 µM (inactive) | 12.7 µM (inactive) | 2.09 µM (inactive) | 1.63 µM (inactive) | 5.12 µM (inactive) | 1.79 µM (inactive) | 2.24 µM (inactive) | 13.3 µM (inactive) | 2.71 µM (inactive) | 0.432 µM (active) | 0.347 µM (active) | 1.32 µM (inactive) | 10.1 µM (inactive) | 3.42 µM (inactive) | 8.89 µM (inactive)
CCO/N=C(/CC)c1ccc(Br)s1 | > 100 µM (inactive) | > 100 µM (inactive) | > 100 µM (inactive) | > 100 µM (inactive) | > 100 µM (inactive) | > 100 µM (inactive) | > 100 µM (inactive) | > 100 µM (inactive) | > 100 µM (inactive) | > 100 µM (inactive) | > 100 µM (inactive) | > 100 µM (inactive) | – | > 100 µM (inactive) | > 100 µM (inactive) | > 100 µM (inactive) | > 100 µM (inactive) | > 100 µM (inactive) | > 100 µM (inactive)
Nc1nc(Cl)cc(NCC2(O)CCCC2)n1 | > 100 µM (inactive) | > 100 µM (inactive) | > 100 µM (inactive) | > 100 µM (inactive) | > 100 µM (inactive) | > 100 µM (inactive) | > 100 µM (inactive) | > 100 µM (inactive) | > 100 µM (inactive) | > 100 µM (inactive) | > 100 µM (inactive) | – | > 100 µM (inactive) | > 100 µM (inactive) | > 100 µM (inactive) | > 100 µM (inactive) | > 100 µM (inactive) | > 100 µM (inactive) | > 100 µM (inactive)
C[C@@]12C[C@@H](c3ccccc3O1)N1Cc3ccccc3CSC1=N2 | > 100 µM (inactive) | > 100 µM (inactive) | 52.8 µM (inactive) | 66.1 µM (inactive) | > 100 µM (inactive) | 33.3 µM (inactive) | 35.4 µM (inactive) | 49.7 µM (inactive) | > 100 µM (inactive) | 49.7 µM (inactive) | 81.5 µM (inactive) | > 100 µM (inactive) | > 100 µM (inactive) | > 100 µM (inactive) | – | 64.9 µM (inactive) | > 100 µM (inactive) | 44.4 µM (inactive) | 79.8 µM (inactive)
CCOc1cc2c(cc1O)C(O)C[C@@H]1[C@@H]2CC[C@]2(C)[C@@H](O)CC[C@@H]12 (stereo partly specified) | 0.766 µM (active) | 0.0501 µM (active) | 0.394 µM (active) | > 100 µM (inactive) | – | 3.03 µM (inactive) | 0.347 µM (active) | 0.129 µM (active) | 0.552 µM (active) | 0.261 µM (active) | 0.284 µM (active) | 0.465 µM (active) | 0.467 µM (active) | 0.279 µM (active) | 0.298 µM (active) | 0.0991 µM (active) | 0.033 µM (active) | 0.236 µM (active) | 0.307 µM (active)
C/C=C1/CN2CCC34C(=C(C(=O)OC)C1CC23)Nc1ccc(O)cc14 (stereo unspecified) | > 100 µM (inactive) | > 100 µM (inactive) | > 100 µM (inactive) | > 100 µM (inactive) | > 100 µM (inactive) | > 100 µM (inactive) | > 100 µM (inactive) | > 100 µM (inactive) | > 100 µM (inactive) | > 100 µM (inactive) | > 100 µM (inactive) | > 100 µM (inactive) | > 100 µM (inactive) | > 100 µM (inactive) | > 100 µM (inactive) | – | > 100 µM (inactive) | > 100 µM (inactive) | > 100 µM (inactive)
CN(C)Cc1cc(C(=O)/C=C/c2ccccc2Cl)cc(CN(C)C)c1O | 14.5 µM (inactive) | 12.9 µM (inactive) | 13.8 µM (inactive) | – | 14.7 µM (inactive) | 20.2 µM (inactive) | 7.93 µM (inactive) | 3.93 µM (inactive) | 24.3 µM (inactive) | 5.42 µM (inactive) | – | 13.9 µM (inactive) | 13.8 µM (inactive) | 12.8 µM (inactive) | 3.4 µM (inactive) | 4.79 µM (inactive) | 13.5 µM (inactive) | 11.8 µM (inactive) | 11 µM (inactive)
CC1(C)N/C(=C\[N+](=O)[O-])C(C)(C)N1O | > 10 µM (inactive) | > 10 µM (inactive) | > 10 µM (inactive) | > 10 µM (inactive) | > 10 µM (inactive) | > 10 µM (inactive) | > 10 µM (inactive) | > 10 µM (inactive) | > 10 µM (inactive) | > 10 µM (inactive) | > 10 µM (inactive) | > 10 µM (inactive) | > 10 µM (inactive) | > 10 µM (inactive) | > 10 µM (inactive) | – | > 10 µM (inactive) | > 10 µM (inactive) | > 10 µM (inactive)
CN(C)CCNC(=O)c1cc(-c2nccn2C)nc2ccccc12 | > 100 µM (inactive) | > 100 µM (inactive) | > 100 µM (inactive) | – | – | > 100 µM (inactive) | – | > 100 µM (inactive) | > 100 µM (inactive) | > 100 µM (inactive) | > 100 µM (inactive) | > 100 µM (inactive) | > 100 µM (inactive) | > 100 µM (inactive) | > 100 µM (inactive) | > 100 µM (inactive) | > 100 µM (inactive) | > 100 µM (inactive) | > 100 µM (inactive)
